These results are taken from patent US12319655B2, “RAF kinase inhibitors and methods of use thereof” (Deciphera Pharmaceuticals, LLC, priority 2021, dated 2025).

Assay [1] deals with B-Raf kinase (SEQ. ID NO: 2) (Homo sapiens (Human), UniProt P15056). Description: Biochemical Assay for B-Raf (1). The following applies: Table J, assay version (1); read-out: BRAF (1) IC50. The method, boiled down: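 IC50 derived by four-parameter sigmoidal fit of percent inhibition, normalised to uninhibited and reference-inhibitor controls, using reaction rates over 4–5 h. Coupled spectrophotometric readout (NADH loss at 340 nm, 6 h, 30° C.); 1 mM ATP, 30.1 nM MEK, 0.13 nM B-Raf, pH 7.5 Tris buffer, 1% DMSO.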

A further assay has as its system A375 cells. Put plainly: A375 Cell Proliferation Assay (1). The assay is classed as cell-based. The following applies: Homo sapiens, A-375. The gist of the method: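 Resazurin fluorescence (excitation 540 nm, emission 600 nm, after a further 5-6 h) gave IC50s from triplicate compound dilution series.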
Another assay relates to WM3928 cells. Description: WM3928 Cell Proliferation Assay (1). The format is cell-based. The gist of the method: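 IC50 was derived from resazurin fluorescence (ex 540, em 600 nm) after a 6–7 h dye incubation. Before that, cells had 67–72 h of compound exposure at 37 °C, 5% CO2.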
The test system of the next assay is Miapaca-2 cells. Description: MiaPaca-2 Combination Cell proliferation Assay (1) with cobimetinib. The assay is classed as cell-based. The following applies: MiaPaca-2 cell proliferation, read-out: MiaPaca-2 Combo (1) IC50. As for the experimental part:
MiaPaca-2 Combination Cell proliferation Assay (1)
Miapaca-2 cells (catalog #CRL-1420) are obtained from the American Type Culture Collect (ATCC, Manassas, VA). Briefly, cells were grown in DMEM supplemented with 10% characterized fetal bovine serum (Invitrogen, Carlsbad, CA), 2.5% New Zealand sourced horse serum and 1% Penicillin/Streptomycin/L-Glutamine at 37° C., 5% CO2, and 95% humidity. Cells are expanded until reaching 70-95% confluency at which point they are subcultured or harvested for assay use. A serial dilution of test compound was dispensed into multiple 96-well black clear bottom plates in triplicate. A serial dilution of complete growth medium containing cobimetinib was prepared at twice the final concentration and 100 μL was dispensed across the test compound titration in triplicate. Three thousand cells are added per well in 100 μL complete growth medium in each 96-well plate. Plates are incubated for 67-72 hours at 37° C., 5% CO2, and 95% humidity. At the end of the incubation, 40 μL of a 440 μM solution of resazurin (Sigma, St. Louis, MO) in PBS is added to each well of the plate and plates are incubated for an additional 5-7 hours at 37° C., 5% CO2, and 95% humidity. Plates are read on a Synergy2 or equivalent reader (Biotek, Winooski VT) using an excitation of 540 nm and an emission of 600 nm. Drug synergy was assessed via BLISS analysis in the Combenefit software (Cancer Research UK Cambridge Institute, Cambridge, UK). Data is analyzed using Prism software (Graphpad, San Diego, CA) to calculate IC50 values. Shifts in test compound IC50 values are reported from top-constrained combination therapy curves.

B-Raf kinase (SEQ. ID NO: 2), sequence (P15056 416-766): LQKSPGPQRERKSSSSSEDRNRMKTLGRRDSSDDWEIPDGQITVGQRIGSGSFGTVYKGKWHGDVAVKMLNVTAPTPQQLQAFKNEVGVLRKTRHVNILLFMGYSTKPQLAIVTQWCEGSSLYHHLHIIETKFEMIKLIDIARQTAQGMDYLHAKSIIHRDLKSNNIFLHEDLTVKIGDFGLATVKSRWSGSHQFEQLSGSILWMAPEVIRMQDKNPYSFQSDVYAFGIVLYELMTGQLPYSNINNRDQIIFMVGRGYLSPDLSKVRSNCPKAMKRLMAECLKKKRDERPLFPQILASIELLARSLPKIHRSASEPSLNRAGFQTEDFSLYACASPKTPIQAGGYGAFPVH

`CC(=O)Nc1cc(-c2nccc(-c3cc(NC(=O)c4ccnc(C(C)(C)C#N)c4)ccc3C)n2)ccn1` [Example 118]: the IC50 (in assay [1]; in the assay with A375 cells; in the assay with WM3928 cells; in the assay with Miapaca-2 cells) was no more than 100 nM throughout.
As for `Cc1ccc(NC(=O)c2ccnc(C(F)F)c2)cc1-c1cncc(-c2ccnc(NC(=O)C3CC3)c2)n1` [Example 117], the IC50 in assay [1] is no more than 100 nM; in the assay on A375 cells, 100 to 500 nM; in the assay on WM3928 cells it was no more than 100 nM; in the assay with Miapaca-2 cells, no more than 100 nM.
Turning to `Cc1ccc(NC(=O)c2ccnc(C(C)(C)C#N)c2)cc1-c1cncc(-c2ccnc(NC(=O)C3CC3)c2)n1` [Example 112], the 50% inhibitory concentration (IC50) (in assay [1]; in the assay with A375 cells; with WM3928 cells; with Miapaca-2 cells) was no more than 100 nM in each case.
`Cc1ccc(NC(=O)c2ccnc(C3CC3)c2)cc1-c1cncc(-c2ccnc(NC(=O)C3CC3)c2)n1` [Example 184]: the IC50 (in assay [1]; with A375 cells; in the assay with WM3928 cells; in the assay on Miapaca-2 cells) was no more than 100 nM in each case.
Turning to `Cc1ccc(NC(=O)c2ccnc(C(C)(C)C#N)c2)cc1-c1cccc(-c2ccnc3[nH]ncc23)c1` [Example 134], the IC50 is no more than 100 nM in assay [1], 100 to 500 nM with A375 cells, no more than 100 nM with WM3928 cells and 100 to 500 nM in the assay on Miapaca-2 cells.
As to `CC(=O)Nc1cc(-c2cncc(-c3cc(NC(=O)c4cc(C(F)(F)F)ccn4)ccc3C)n2)ccn1` [Example 124], the IC50 (in assay [1]; in the assay with A375 cells; in the assay with WM3928 cells; in the assay with Miapaca-2 cells) was no more than 100 nM in each case.
Consider `Cc1ncc(NC(=O)c2ccnc(C(C)(C)C#N)c2)cc1-c1cccc(-c2cc(NC(=O)C3CC3)ncn2)c1` [Example 181], for which the concentration for half-maximal inhibition (IC50) (in assay [1]; with A375 cells; with WM3928 cells; in the assay on Miapaca-2 cells) was no more than 100 nM each time.
As for `Cc1cc(F)c(NC(=O)c2ccnc(C(C)(C)C#N)c2)cc1-c1ccnc(-c2ccnc(NC=O)c2)c1` [Example 104], the 50% inhibitory concentration (IC50) (in assay [1]; with A375 cells; in the assay on WM3928 cells; with Miapaca-2 cells) was no more than 100 nM throughout.
Consider `Cc1ncc(NC(=O)c2ccnc(C(C)(C)C#N)c2)cc1-c1cccc(-c2ccnc(NC(=O)C3CC3)c2)n1` [Example 172], for which the IC50 (in assay [1]; with A375 cells; in the assay with WM3928 cells; in the assay with Miapaca-2 cells) was no more than 100 nM in each case.
Regarding `CC(=O)Nc1cc(-c2ccnc(-c3cc(NC(=O)c4ccnc(C(C)(C)C#N)c4)ccc3C)n2)ccn1` [Example 103], the concentration for half-maximal inhibition (IC50) (in assay [1]; with A375 cells; with WM3928 cells; in the assay with Miapaca-2 cells) was no more than 100 nM in each case.

One may read the IC50 as the concentration at which inhibition is half-maximal.
